What was measured:
ALS-MNs [1] = system: ALS-MNs
ALS-MNs [2] = test: Arsenite-induced cell death of iPS cell-derived ALS motor neurons (HB9::GFP-positive cell number); type: cell-based, human; settings: added 16 or 48 hr before arsenite addition, FIG. 12D
insoluble TDP-43 = test: Amount of TDP-43 protein insoluble in 1% Triton X-100 solution in ALS-MNs; type: cell-based, human; settings: AA addition, FIGS. 12G and H
ALS-MNs [3] = test: Length of neurite in HB9::GFP-positive ALS-MNs (IN Cell Analyzer 2000); type: cell-based, human; settings: AA addition vs control group; FIGS. 12E and F
NEFL = NEFL expression level in ALS-MNs (quantitative PCR); type: cell-based, human; settings: AA addition
NEFM = NEFM expression level in ALS-MNs (quantitative PCR); type: cell-based, human; settings: AA addition
[4] = system: ALS-iPS cell-derived neurons; test: Gene expression category analysis (gene ontology) in ALS-iPS cell-derived neurons; type: cell-based, human; settings: AA addition vs non-addition; FIG. 13A
[5] = system: TNFα/NF-κB, andorogen receptor and α6β4 integrin pathways; test: Signal transduction pathway analysis in ALS-iPS cell-derived neurons; type: cell-based, human; settings: AA addition vs non-addition; FIG. 13B
ALS-MNs [6] = test: MDA (malondialdehyde)-modified protein in total protein by Western blotting; type: cell-based, human; settings: AA addition vs non-addition, particularly proteins of about 30 kDa to 50 kDa, FIG. 14
Text: Sequentially, to confirm an antioxidant action of AA, the amount of the protein modified with MDA (malondialdehyde) in the total protein was confirmed by Western blotting using 5 to 15% gradient gel in the AA addition group and the AA non-addition group of control MNs or ALS-MNs. […] This tendency was particularly strong in proteins having a size of about 30 kDa to 50 kDa.

For arsenite, the RNA granule formation (ALS-MNs [1]) was “promotion”, the “insoluble TDP-43” value (ALS-MNs [1]) was “increase” and the “number of cells subjected to EthD-1-positive injury” value (ALS-MNs [1]) was “significantly high”.

`CO[C@]1(C)C[C@@]2(CO2)[C@H](O)[C@@H](/C=C/C(C)=C/C[C@@H]2O[C@H](C)[C@H](NC(=O)/C=C\[C@H](C)OC(C)=O)C[C@@H]2C)O1` [splicesostatin A] was tested, and the “suppression of arsenite-induced cell death of ALS-MNs” value (ALS-MNs [2]; 100 ng/ml) was “did not show such action”.

`CC(/C=C/C(=O)NO)=C\[C@@H](C)C(=O)c1ccc(N(C)C)cc1` [trichostatin A] was tested, and the “suppression of arsenite-induced cell death of ALS-MNs” value (ALS-MNs [2]; 3 μM) was “did not show such action”.

With `CCCCCCCCCCCCCCCc1cccc(O)c1C(=O)O` [anacardic acid] the “amount of insoluble TDP-43” value (insoluble TDP-43) was “decreased”, the “length of neurite in ALS-MNs” value (ALS-MNs [3]) was “significantly increased” and the “expression level of NEFL” value (NEFL) was “increased”. For the same molecule, the “expression level of NEFM” value (NEFM) was “increased”, the “factors relating to intermediate filament cytoskeleton, intermediate filament and keratin filament” value [4] was “increased” and the “factors relating to translation, RNP complex, RNA binding, RNA metabolism pathway, RNA processing, RNA splicing and spliceosomal complex” value [4] was “decreased”. For the same molecule, the “TNFα/NF-κB, andorogen receptor and α6β4 integrin pathways” value [5] was “decreased” and the “amount of MDA-modified protein in the total protein” value (ALS-MNs [6]) was “decreased the amount”.
